From BindingDB's records for doi:10.1016/j.bioorg.2017.05.004 (The Affiliated Hospital of Qingdao University, 2017)

Biological target: T1, Troponin C, slow skeletal and cardiac muscles [4-85] (Human, UniProt P63316)
T1 construct: 4-85
Assay: Fluorescence Polarization Assay
Details: pH 7; 14 °C
Method: The fluorescence polarization assays were performed at 298 K following a protocol modified from previously reported protocol [Zhuo et al., Mol. Biosyst., 12:2532-2540]. Synthetic peptides were labeled with fluorescein. Titrations were conducted by monitoring polarization as a function of increasing amounts of the proteins of TnC N-terminal domain added to 20 nM fluorescein-peptides in a buffer 50 mM HEPES, pH 7.0, 0.1% Tween 20, 200 mM NaCl and 15 mM DTT.

T1 sequence (P63316 4-85): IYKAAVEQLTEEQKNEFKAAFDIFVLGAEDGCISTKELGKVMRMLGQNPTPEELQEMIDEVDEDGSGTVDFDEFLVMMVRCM

| Structure (SMILES) | Kd |
| --- | --- |
| CSCC[C@H](NC(=O)[C@H](C)NC(=O)[C@H](CC(=O)O)NC(=O)[C@H](C)N)C(=O)N[C@@H](CCSC)C(=O)N[C@@H](CCC(N)=O)C(=O)N[C@@H](C)C(=O)N[C@@H](CC(C)C)C(=O)N[C@@H](CC(C)C)C(=O)NCC(=O)N[C@@H](C)C(=O)N[C@@H](CCCNC(=N)N)C(=O)O [ADAMMQALLGAR] | 15.7 µM |
| CC[C@H](C)[C@H](N)C(=O)N[C@@H](CO)C(=O)N[C@@H](C)C(=O)N[C@@H](CC(=O)O)C(=O)N[C@@H](C)C(=O)N[C@@H](CCSC)C(=O)N[C@@H](CCSC)C(=O)N[C@@H](CCC(N)=O)C(=O)N[C@@H](C)C(=O)N[C@@H](CC(C)C)C(=O)N[C@@H](CC(C)C)C(=O)NCC(=O)N[C@@H](C)C(=O)N[C@@H](CCCNC(=N)N)C(=O)N[C@@H](C)C(=O)N[C@@H](CCCCN)C(=O)N[C@@H](CCC(=O)O)C(=O)N[C@@H](CO)C(=O)O [ISADAMMQALLGARAKES] | 4.2 µM |
